# Test results: patent publication US5593984A, “Cephalosporin derivatives” (Yuhan Corporation, priority 1992, dated 1997)
# Key:
# Format in all cases: cell-based
# [1] = system: E. coli No. 29; assay: MIC by agar dilution, E. coli No. 29; settings: Escherichia coli, 17 h; E. coli No. 29; agar dilution, Mueller-Hinton agar; read-out: Minimal Inhibitory Concentration (MIC)
# Outline: (§1)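 Medium: Mueller-Hinton agar with compound in doubling dilutions. Inoculum: 10^6 CFU/ml. Incubation: 35°-37° C. for 17±1 hours.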
# [2] = system: M. morganii DY-1; assay: MIC by agar dilution, M. morganii DY-1; settings: Morganella morganii, DY1, 17 h; M. morganii DY-1; agar dilution, Mueller-Hinton agar; read-out: Minimal Inhibitory Concentration (MIC)
# Outline: as §1
# [3] = system: Ent. cloacae IFO 13535; assay: MIC by agar dilution, Ent. cloacae IFO 13535; settings: Enterobacter cloacae, IFO13535, 17 h; Ent. cloacae IFO 13535; agar dilution, Mueller-Hinton agar; read-out: Minimal Inhibitory Concentration (MIC)
# Outline: as §1
# [4] = system: K. pneumoniae NCTC 9632; assay: MIC by agar dilution, K. pneumoniae NCTC 9632; settings: Klebsiella pneumoniae, NCTC9632, 17 h; K. pneumoniae NCTC 9632; agar dilution, Mueller-Hinton agar; read-out: Minimal Inhibitory Concentration (MIC)
# Outline: as §1
# [5] = system: Ps. aeruginosa DY-2; assay: MIC by agar dilution, Ps. aeruginosa DY-2; settings: Pseudomonas aeruginosa, DY2, 17 h; Ps. aeruginosa DY-2; agar dilution, Mueller-Hinton agar; read-out: Minimal Inhibitory Concentration (MIC)
# Outline: as §1
# [6] = system: E. coli NIHJ JC-2; assay: MIC by agar dilution, E. coli NIHJ JC-2; settings: Escherichia coli, NIHJJC2, 17 h; E. coli NIHJ JC-2; agar dilution, Mueller-Hinton agar; read-out: Minimal Inhibitory Concentration (MIC)
# Outline: as §1
# [7] = system: P. vulgaris NCTC 8313; assay: MIC by agar dilution, P. vulgaris NCTC 8313; settings: Proteus vulgaris, NCTC8313, 17 h; P. vulgaris NCTC 8313; agar dilution, Mueller-Hinton agar; read-out: Minimal Inhibitory Concentration (MIC)
# Outline: as §1
# [8] = system: Ps. aeruginosa NCTC 10490; assay: MIC by agar dilution, Ps. aeruginosa NCTC 10490; settings: Pseudomonas aeruginosa, NCTC10490, 17 h, Mueller-Hinton agar, read-out: Minimal Inhibitory Concentration (MIC)
# Outline: as §1
# [9] = system: S. epidermidis ATCC 12228; assay: MIC by agar dilution, S. epidermidis ATCC 12228; settings: Staphylococcus epidermidis, ATCC12228, 17 h; S. epidermidis ATCC 12228; agar dilution, Mueller-Hinton agar; read-out: Minimal Inhibitory Concentration (MIC)
# Outline: as §1
# [10] = system: Ent. aerogenes IFO 12979; assay: MIC by agar dilution, Ent. aerogenes IFO 12979; settings: Klebsiella aerogenes, IFO12979, 17 h, Mueller-Hinton agar, read-out: Minimal Inhibitory Concentration (MIC)
# Outline: as §1
# [11] = system: Staph. aureus Smith; assay: MIC by agar dilution, Staph. aureus Smith; settings: Staphylococcus aureus, 17 h, Mueller-Hinton agar, read-out: Minimal Inhibitory Concentration (MIC)
# Outline: as §1
# [12] = system: Staph. aureus C-5216; assay: MIC by agar dilution, Staph. aureus C-5216; settings: Staphylococcus aureus, C5216, 17 h, Mueller-Hinton agar, read-out: Minimal Inhibitory Concentration (MIC)
# Outline: as §1
# [13] = system: E. coli DY-1; assay: MIC by agar dilution, E. coli DY-1; settings: Escherichia coli, DY1, 17 h; E. coli DY-1; agar dilution, Mueller-Hinton agar; read-out: Minimal Inhibitory Concentration (MIC)
# Outline: as §1
# [14] = system: Staph. aureus C-5113; assay: MIC by agar dilution, Staph. aureus C-5113; settings: Staphylococcus aureus, C5113, 17 h, Mueller-Hinton agar, read-out: Minimal Inhibitory Concentration (MIC)
# Outline: as §1
# [15] = system: Prov. stuartii IFO 12930; assay: MIC by agar dilution, Prov. stuartii IFO 12930; settings: Providencia stuartii, IFO12930, 17 h, Mueller-Hinton agar, read-out: Minimal Inhibitory Concentration (MIC)
# Outline: as §1
# [16] = system: B. subtilis ATCC 6633; assay: MIC by agar dilution, B. subtilis ATCC 6633; settings: Bacillus subtilis, ATCC6633, 17 h; B. subtilis ATCC 6633; agar dilution, Mueller-Hinton agar; read-out: Minimal Inhibitory Concentration (MIC)
# Outline: as §1
# [17] = system: Staph. aureus C-57; assay: MIC by agar dilution, Staph. aureus C-57; settings: Staphylococcus aureus, C57, 17 h, Mueller-Hinton agar, read-out: Minimal Inhibitory Concentration (MIC)
# Outline: as §1
# [18] = system: Ser. marcescens IFO 12648; assay: MIC by agar dilution, Ser. marcescens IFO 12648; settings: Serratia marcescens, IFO12648, 17 h; Ser. marcescens IFO 12648; agar dilution, Mueller-Hinton agar; read-out: Minimal Inhibitory Concentration (MIC)
# Outline: as §1
# [19] = system: Ps. aeruginosa ATCC 10145; assay: MIC by agar dilution, Ps. aeruginosa ATCC 10145; settings: Pseudomonas aeruginosa, ATCC10145, 17 h, Mueller-Hinton agar, read-out: Minimal Inhibitory Concentration (MIC)
# Outline: as §1
# [20] = system: Staph. aureus ATCC 6538P; assay: MIC by agar dilution, Staph. aureus ATCC 6538P; settings: Staphylococcus aureus, ATCC6538P, 17 h; Staph. aureus ATCC 6538P; agar dilution, Mueller-Hinton agar; read-out: Minimal Inhibitory Concentration (MIC)
# Outline: as §1
MIC [1],MIC [2],MIC [3],MIC [4],MIC [5],MIC [6],MIC [7],MIC [8],MIC [9],MIC [10],MIC [11],MIC [12],MIC [13],MIC [14],MIC [15],MIC [16],MIC [17],MIC [18],MIC [19],MIC [20],SMILES
0.05 mg/L,0.2 mg/L,0.78 mg/L,0.2 mg/L,25 mg/L,0.2 mg/L,0.025 mg/L,3.13 mg/L,0.1 mg/L,0.05 mg/L,1.56 mg/L,3.13 mg/L,0.025 mg/L,1.56 mg/L,0.05 mg/L,0.39 mg/L,25 mg/L,0.2 mg/L,6.25 mg/L,0.39 mg/L,"CCO/N=C(\C(=O)N[C@@H]1C(=O)N2C(C(=O)[O-])=C(C[n+]3ccn4c(Br)ccc4c3C)CS[C@H]12)c1csc(N)n1 [Ex. 42, 7-β-[(Z)-2-(2-aminothiazol-4-yl)-2-ethoxyiminoacetamido]-3-(6-bromo-1-methylpyrrolo[1,2-a]pyrazinium-2-yl)methyl-3-cephem-4-carboxylate]"
0.05 mg/L,0.05 mg/L,0.2 mg/L,0.1 mg/L,12.5 mg/L,0.025 mg/L,≤ 0.006 mg/L,0.78 mg/L,0.012 mg/L,0.012 mg/L,0.78 mg/L,0.78 mg/L,0.012 mg/L,1.56 mg/L,0.012 mg/L,0.2 mg/L,12.5 mg/L,0.05 mg/L,0.78 mg/L,0.1 mg/L,"CO/N=C(\C(=O)N[C@@H]1C(=O)N2C(C(=O)[O-])=C(C[n+]3ccn4c(C#N)ccc4c3C)CS[C@H]12)c1csc(N)n1 [Ex. 43, 7-β-[(Z)-2-(2-aminothiazol-4-yl)-2-methoxyiminoacetamido]-3-(1-methyl-6-cyanopyrrolo[1,2-a]pyrazinium-2-yl)methyl-3-cephem-4-carboxylate]"
≤ 0.006 mg/L,0.012 mg/L,0.1 mg/L,0.012 mg/L,6.25 mg/L,0.012 mg/L,≤ 0.006 mg/L,0.1 mg/L,0.2 mg/L,≤ 0.006 mg/L,0.78 mg/L,0.78 mg/L,≤ 0.006 mg/L,3.13 mg/L,≤ 0.006 mg/L,0.1 mg/L,50 mg/L,0.012 mg/L,0.39 mg/L,0.2 mg/L,"CON=C(C(=O)NC1C(=O)N2C(C(=O)[O-])=C(C[n+]3ccn4c(CO)ccc4c3)CSC12)c1csc(N)n1 (stereo not drawn) [Ex. 21, 7-β-[(Z)-2-(2-aminothiazol-4-yl)-2-methoxyiminoacetamido]-3-(6-hydroxymethylpyrrolo[1,2-a]pyrazinium-2-yl)methyl-3-cephem-4-carboxylate]"
0.025 mg/L,0.012 mg/L,0.2 mg/L,0.012 mg/L,3.13 mg/L,0.025 mg/L,≤ 0.006 mg/L,0.39 mg/L,0.39 mg/L,0.012 mg/L,6.25 mg/L,12.5 mg/L,0.025 mg/L,6.25 mg/L,≤ 0.006 mg/L,0.78 mg/L,100 mg/L,0.012 mg/L,0.78 mg/L,1.56 mg/L,"Nc1nc(C(=NOCC(=O)O)C(=O)NC2C(=O)N3C(C(=O)[O-])=C(C[n+]4ccn5c(CO)ccc5c4)CSC23)cs1 (stereo not drawn) [Ex. 23, 7-β-[(Z)-2-(2-aminothiazol-4-yl)-2-carboxymethoxyiminoacetamido]-3-(6-hydroxymethylpyrrolo[1,2-a]pyrazinium-2-yl)methyl-3-cephem-4-carboxylate]"
